Results reported in patent publication US12050220B2, “Cell labeling agent and cell labeling kit” (University of Miyazaki, priority 2018, dated 2024).

Experiments:
[1] = Confirmation of the reactivity of BCN-ManNAc in vitro (click reaction with FAM-tetrazine, fluorescence spectra); settings: BCN-ManNAc 200 μM, FAM-tetrazine 1 μM, PBS; time-varying measurement up to 4000 s
Description: 2.0 mg of BCN-ManNAc was dissolved in 190 μL of DMSO and 20 mM of BCN-ManNAc solution was prepared. 1.0 mg of FAM-tetrazine was dissolved in 180 μL of DMSO and […] of FAM-tetrazine solution was prepared. 89 μL of phosphate-buffered saline (PBS) was prepared in a microtube, to which 1 μL of BCN-ManNAc solution and 10 μL of FAM-tetrazine solution were added, and the mixture was stirred well in a vortex mixer. The final concentrations of BCN-ManNAc and FAM-tetrazine in the mixture are 200 μM and 1 μM, respectively.
100 μL of the mixture was reacted at 37° C. for 1.5 hours. As a control, 100 μL of the sample of BCN-ManNAc 200 μM only was prepared. The fluorescence spectra of the mixture and control were measured using a spectrophotometer (JASCO FP-8200) (λex=492 nm, λem=517 nm). To evaluate the time dependence of the reaction of BCN-ManNAc and FAM-tetrazine, the fluorescence spectra of 100 μL of the mixture were measured up to 4000 s in the time-varying measurement mode.

[2] = test system: HeLa cells; assay: Fluorescence imaging of cells (metabolic labeling, FAM-tetrazine staining, confocal microscopy); assay type: cell-based
Description: BCN-ManNAc was added to the medium containing 1×10^5 HeLa cells and cultured for 72 hours. The medium used was DMEM (Dulbecco's Modified Eagle's Medium) containing 10% FBS (fetal bovine serum). The final concentrations of BCN-ManNAc added to the medium were 0, 2.5, 5, 10, 20, and 25 μM. After incubation, the medium was removed and the cells were washed three times with PBS. 3.7% paraformaldehyde was added and the cells were fixed for 20 min at room temperature. A final concentration of 1 μM FAM-tetrazine was added to the plate containing the fixed cells, and the cells were incubated for 20 min at room temperature. Fluorescence measurement was performed using a confocal microscopy (Leica TCS SP8, Leica Microsystems).

Substance: acetylated BCN-modified mannosamine [BCN-ManNAc]
- time at which fluorescence intensity almost reached its maximum [1]: about 1800 s
- fluorescence of FAM in cells ([2]; HeLa cells cultured 72 hours with 0, 2.5, 5, 10, 20, 25 μM, fixed, 1 μM FAM-tetrazine 20 min): increased in a concentration-dependent manner
- fluorescence images of cells exposed to FAM-tetrazine (+) ([2]; HeLa cells cultured in medium containing 25 μM, with FAM-tetrazine (+) vs without (−)): observed by fluorescence
